Data reported in patent US6060458A (The United States of America as represented by the …, priority 1998, dated 2000).
Where a chain is given by its changes, count along the chain named.

What was measured:
[1] = tested on: wild-type human alkyltransferase (AGT); assay: Inactivation of purified wild-type human AGT, residual activity on [3H]-methylated DNA substrate; format: biochemical; settings: 30 min at 37° C. incubation with inactivator
Description: (§1) Whether or not a given single-stranded oligodeoxyribonucleotide inactivates a wild-type or mutant human alkyltransferase can be determined by measuring alkyltransferase depletion. For example, a stock solution (100 mM) of a given single-stranded oligodeoxyribonucleotide in an aqueous or mixed aqueous/organic solvent can be prepared. Solutions of the human wild-type AGT, mutant human AGT, or the AGT from HT29 cells and cell extracts (Domoradzki et al., Carcinogenesis 5: 1641-1647 (1984)) can be incubated with varying concentrations (between 0 and 400 μM, for example) of the oligodeoxyribonucleotide for 30 min in a buffer containing 50 mM Tris-HCl, pH 7.5, 0.1 mM EDTA, and 5 mM dithiothreitol, and alkyltransferase depletion can be measured. Alternatively, cells can be plated at a density of 5×10^6 cells/T75 flask and allowed to grow for three days, at which time the medium can be replaced with medium containing a given concentration of an oligodeoxyribonucleotide. After four hours, cells can be harvested and frozen at -80° C. for analysis of alkyltransferase depletion later. Alkyltransferase depletion is determined by measuring loss of O^6 -[^3 H]methylguanine, for example, from a [^3 H]methylated DNA substrate, for example, which can be prepared by reacting [^3 H]methylnitrosourea (21.5 Ci/mmol) with calf thymus DNA as described previously (Domoradzki et al. (1984), supra; and Dolan et al. (1990), supra).
(§2) Wild-type human AGT and mutants thereof, namely P140A and G156A, were prepared using the pIN vector expression system. pIN-AGT, pIN-P140A (Pro-140 to Ala) and pIN-G156A (Gly-156 to Ala) (Crone et al. (1993), supra; Crone et al. (1994), supra; and Pegg et al. (1993), supra).
(§3) The wild-type and mutant AGT proteins expressed from the pIN vectors were purified to homogeneity by ammonium sulfate precipitation, Mono-S chromatography and gel filtration as previously described (Pegg et al. (1993), supra; and Kanugula et al. (1995), supra). […] Afterwards, residual AGT activity was determined by a 30 min incubation with a [^3 H]-methylated DNA substrate (1.0 ml volume), which had been methylated by reaction with N-[^3 H]-methyl-N-nitrosourea as previously described (Dolan et al. (1993), supra; and Dolan et al. (1991), supra).

[2] = target: T1, mutant human alkyltransferase G156A (Homo sapiens, UniProt P16455, G156A); assay: Inactivation of purified mutant human AGT G156A, residual activity on [3H]-methylated DNA substrate; format: biochemical; settings: 30 min at 37° C. incubation with inactivator
T1 construct: made in house; E. coli by own knowledge of pIN vectors
T1 sequence (P16455 1-207 G156A): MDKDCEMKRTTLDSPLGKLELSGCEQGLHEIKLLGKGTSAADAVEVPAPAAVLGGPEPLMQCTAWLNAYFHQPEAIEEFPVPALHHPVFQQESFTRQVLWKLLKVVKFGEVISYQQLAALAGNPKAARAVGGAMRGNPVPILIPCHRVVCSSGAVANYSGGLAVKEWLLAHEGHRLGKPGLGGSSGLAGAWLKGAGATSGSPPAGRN
Description: as §1, §2, §3

[3] = target: T2, mutant human alkyltransferase P140A (Homo sapiens, UniProt P16455, P140A); assay: Inactivation of purified mutant human AGT P140A, residual activity on [3H]-methylated DNA substrate; format: biochemical; settings: 30 min at 37° C. incubation with inactivator
T2 construct: made in house; E. coli by own knowledge of pIN vectors
T2 sequence (P16455 1-207 P140A): T1 sequence (P16455 1-207 G156A) with P140A, A156G
Description: as §1, §2, §3

[4] = target: wild-type human alkyltransferase (AGT); settings: data previously published, read-out: ED50 for inactivation of AGT; cited from earlier work
[5] = target: T1, mutant human alkyltransferase G156A; settings: G156A mutant AGT; data previously published; read-out: ED50 for inactivation of AGT; cited from earlier work
[6] = target: T2, mutant human alkyltransferase P140A; settings: P140A mutant AGT; data previously published; read-out: ED50 for inactivation of AGT; cited from earlier work
[7] = tested on: AGT; settings: cell culture; maximal reduction attained (Pegg et al. (1995)); cited from earlier work

Molecule | ED50 for inactivation of AGT (concentration needed to reduce AGT activity by 50%) [1] [nM] | ED50 for inactivation of AGT (concentration needed to reduce AGT activity by 50%) [2] [nM] | ED50 for inactivation of AGT (concentration needed to reduce AGT activity by 50%) [3] [nM] | IC50 [4] [nM] | IC50 [5] [nM] | IC50 [6] [nM] | reduction of AGT activity [7] [%]
5'-d(GAb^6 GCT)-3' | 13 | 60 | 50 | – | – | – | –
Nc1nc(OCc2ccccc2)c2[nH]cnc2n1 [O^6 -benzylguanine] | – | – | – | 200 | – | – | –
5'-d(TGTGAb^6 GCTGTG)-3' | 13 | 110 | 75 | – | – | – | –
5'-d(GTGAb^6 GCTGT)-3' | 8 | 90 | 60 | – | – | – | –
Nc1nc(OCc2ccccc2)c2ncn([C@H]3C[C@H](O)[C@@H](CO)O3)c2n1 [O^6-benzyl-2'-deoxyguanosine] | – | – | – | 2000 | > 100000 | > 20000 | –
5'-d(Ab^6 GC)-3' | 90 | 4600 | 770 | – | – | – | –
COc1nc(N)nc2[nH]cnc12 [O^6 -methylguanine] | – | – | – | – | – | – | 85
5'-d(TGAb^6 GCTG)-3' | 7 | 50 | 60 | – | – | – | –
